These results are taken from ChEMBL document CHEMBL5344406, “1,2,3-Triazole-containing hybrids with potential antibacterial activity against ESKAPE pathogens” (2022).

A word on the MIC: it is the lowest concentration found to suppress growth.

Structures are written as SMILES. Converted amounts (≈) assume the structure as drawn.

What all share (type): functional
The subject of assay [1] is Staphylococcus aureus. As to the kind of experiment: Antibacterial activity against methicillin-resistant Staphylococcus aureus clinical isolate 2 assessed as bacterial growth inhibition incubated for 8 hrs by CLSI based broth microdilution method.
In assay [2] the test system is Staphylococcus aureus. As to the kind of experiment: Antibacterial activity against methicillin-resistant Staphylococcus aureus clinical isolate 1 assessed as bacterial growth inhibition incubated for 8 hrs by CLSI based broth microdilution method.
In assay [3] the test system is Escherichia coli. As to the kind of experiment: Antibacterial activity against Escherichia coli assessed as bacterial growth inhibition by CLSI based broth microdilution method. In general terms: Broth dilution looks for growth in wells or tubes with falling amounts of substance.
Assay [4] concerns Staphylococcus aureus. The assay can be described thus: Antibacterial activity against Staphylococcus aureus assessed as bacterial growth inhibition by CLSI based broth microdilution method.
The subject of assay [5] is Pseudomonas aeruginosa. As to the kind of experiment: Antibacterial activity against Pseudomonas aeruginosa assessed as bacterial growth inhibition by CLSI based broth microdilution method.
The subject of assay [6] is Pseudomonas aeruginosa. As to the kind of experiment: Antibacterial activity against Pseudomonas aeruginosa assessed as bacterial growth inhibition by broth microdilution method.
The subject of assay [7] is Bacillus subtilis. As to the kind of experiment: Antibacterial activity against Bacillus subtilis assessed as bacterial growth inhibition by broth microdilution method.
Assay [8] deals with Staphylococcus aureus. The assay can be described thus: Antibacterial activity against Staphylococcus aureus ATCC 43300 assessed as bacterial growth inhibition incubated for 24 hrs by CLSI based broth dilution method.
The subject of assay [9] is Staphylococcus aureus. The assay can be described thus: Antibacterial activity against Staphylococcus aureus clinical isolate AD3 assessed as bacterial growth inhibition incubated for 24 hrs by CLSI based broth dilution method.
The test system of assay [10] is Staphylococcus aureus. The assay can be described thus: Antibacterial activity against Staphylococcus aureus clinical isolate 144 assessed as bacterial growth inhibition incubated for 24 hrs by CLSI based broth dilution method.
Assay [11] deals with Staphylococcus aureus. The assay can be described thus: Antibacterial activity against Staphylococcus aureus ATCC 29213 assessed as bacterial growth inhibition incubated for 24 hrs by CLSI based broth dilution method.
Assay [12] relates to Staphylococcus aureus. The assay can be described thus: Antibacterial activity against Staphylococcus aureus ATCC 43300 assessed as bacterial growth inhibition incubated for 24 hrs by broth microdilution method.
The test system of assay [13] is Staphylococcus aureus. As to the kind of experiment: Antibacterial activity against Staphylococcus aureus clinical isolate AD3 assessed as bacterial growth inhibition incubated for 24 hrs by broth microdilution method.
The test system of assay [14] is Staphylococcus aureus. The assay can be described thus: Antibacterial activity against Staphylococcus aureus ATCC 29213 assessed as bacterial growth inhibition incubated for 24 hrs by broth microdilution method.
For assay [15], the system named is Staphylococcus aureus. The assay can be described thus: Antibacterial activity against Staphylococcus aureus clinical isolate 144 assessed as bacterial growth inhibition incubated for 24 hrs by broth microdilution method.
The test system of assay [16] is Streptococcus pneumoniae. As to the kind of experiment: Antibacterial activity against erythromycin-resistant Streptococcus pneumoniae B1 expressing ermB assessed as bacterial growth inhibition incubated for 24 hrs by CLSI based broth microdilution method.
The subject of assay [17] is Streptococcus pneumoniae. As to the kind of experiment: Antibacterial activity against erythromycin-resistant Streptococcus pneumoniae AB11 expressing ermB/mefA assessed as bacterial growth inhibition incubated for 24 hrs by CLSI based broth microdilution method.
Assay [18] concerns Streptococcus pyogenes. The assay can be described thus: Antibacterial activity against erythromycin-resistant Streptococcus pyogenes clinical isolate 2 assessed as bacterial growth inhibition incubated for 24 hrs by CLSI based broth microdilution method.
Assay [19] concerns Staphylococcus aureus. As to the kind of experiment: Antibacterial activity against methicillin-resistant Staphylococcus aureus ATCC 43300 assessed as bacterial growth inhibition incubated for 24 hrs by CLSI based broth microdilution method.
The subject of assay [20] is Staphylococcus aureus. The assay can be described thus: Antibacterial activity against penicillin-resistant Staphylococcus aureus ATCC 31007 assessed as bacterial growth inhibition incubated for 24 hrs by CLSI based broth microdilution method.
The test system of assay [21] is Staphylococcus aureus. As to the kind of experiment: Antibacterial activity against Staphylococcus aureus ATCC 25923 assessed as bacterial growth inhibition by broth microdilution method.
Assay [22] deals with Escherichia coli. As to the kind of experiment: Antibacterial activity against Escherichia coli ATCC 25922 assessed as bacterial growth inhibition by broth microdilution method.
The test system of assay [23] is Staphylococcus aureus. As to the kind of experiment: Antibacterial activity against Staphylococcus aureus assessed as bacterial growth inhibition by broth microdilution method.
Assay [24] has as its system Escherichia coli. As to the kind of experiment: Antibacterial activity against Escherichia coli assessed as bacterial growth inhibition by broth microdilution method.
Assay [25] has as its system Staphylococcus aureus. The assay can be described thus: Antibacterial activity against Staphylococcus aureus assessed as bacterial growth inhibition.
Assay [26] concerns Escherichia coli. As to the kind of experiment: Antibacterial activity against Escherichia coli assessed as bacterial growth inhibition.

For the compound `CC(C)C[C@@H](N)C(=O)N[C@H]1C(=O)N[C@@H](CC(N)=O)C(=O)N[C@H]2C(=O)N[C@H]3C(=O)N[C@H](C(=O)N[C@H](C(=O)O)c4cc(O)cc(O)c4-c4cc3ccc4O)[C@H](O)c3ccc(c(Cl)c3)Oc3cc2cc(c3O[C@@H]2O[C@H](CO)[C@@H](O)[C@H](O)[C@H]2O[C@H]2C[C@](C)(N)[C@H](O)[C@H](C)O2)Oc2ccc(cc2Cl)[C@H]1O`, the MIC in [1] and in [2] was 1.56 µg/mL (≈ 1.09 µM) in each case.

For the compound `O=C(N/N=C/c1cn(-c2ccccc2)nc1-c1ccc([N+](=O)[O-])cc1)c1cccc(-n2cc(-c3ccccc3)nn2)c1`, the MIC in assay [3], in assay [4] and in assay [5] was 4 µg/mL (≈ 7.21 µM) throughout.

For `O=C(N/N=C/c1cn(-c2ccccc2)nc1-c1ccc(Cl)cc1)c1cccc(-n2cc(-c3ccccc3)nn2)c1`, the MIC in assay [3], in [4] and in assay [5] was 4 µg/mL (≈ 7.35 µM) throughout.

For `O=C(N/N=C/c1cn(-c2ccccc2)nc1-c1ccccc1)c1cccc(-n2cc(-c3ccccc3)nn2)c1`, the MIC in assay [3], in [4] and in [5] was 4 µg/mL (≈ 7.85 µM) each time.

Turning to `CC(C)C[C@H](C(=O)N[C@@H]1Cc2ccc(c(Cl)c2)Oc2cc3cc(c2O[C@@H]2O[C@H](CO)[C@@H](O)[C@H](O)[C@H]2O[C@H]2C[C@](C)(NCCCCCCCc4ccccc4)[C@H](O)[C@H](C)O2)Oc2ccc(cc2Cl)[C@@H](O)[C@@H]2NC(=O)[C@H](NC(=O)[C@@H]3NC(=O)[C@H](CC(=O)O)NC1=O)c1ccc(O)c(c1)-c1c(O)cc(O)cc1[C@H](C(=O)O)NC2=O)n1cc(COc2ccc(-c3ccc(OCc4cn([C@@H](CC(C)C)C(=O)N[C@H]5Cc6ccc(c(Cl)c6)Oc6cc7cc(c6O[C@H]6O[C@@H](CO)[C@H](O)[C@@H](O)[C@@H]6O[C@@H]6C[C@@](C)(NCCCCCCCc8ccccc8)[C@@H](O)[C@@H](C)O6)Oc6ccc(cc6Cl)[C@H](O)[C@H]6NC(=O)[C@@H](NC(=O)[C@H]7NC(=O)[C@@H](CC(=O)O)NC5=O)c5ccc(O)c(c5)-c5c(O)cc(O)cc5[C@@H](C(=O)O)NC6=O)nn4)cc3)cc2)nn1`, the MIC in assay [1] and in [2] was 6.25 µg/mL (≈ 1.78 µM) in each case.

For `C=CCCCCC1CC(=O)N1Cc1cn(-c2cccc(Cl)c2)nn1` (stereo unspecified), the MIC in [6] and in [7] was 1.25 µg/mL (≈ 3.62 µM) in each case.

For `C=C[C@]1(C)C[C@@H](OC(=O)CN2CCN(C(=O)Cn3cc(CN4CCN(c5ccc(Cl)cc5)CC4)nn3)CC2)[C@@]2(C)[C@@H]3C(=O)CC[C@@]3(CC[C@@H]2C)[C@@H](C)[C@@H]1O`, the minimal inhibitory concentration (MIC) in assay [8], in assay [9], in [10] and in [11] was 1 µg/mL (≈ 1.31 µM) each time.

In the case of `C=C[C@]1(C)C[C@@H](OC(=O)Cn2cc(CN3CCN(c4ccccc4C)CC3)nn2)[C@@]2(C)[C@@H]3C(=O)CC[C@@]3(CC[C@@H]2C)[C@@H](C)[C@@H]1O`, the MIC in assay [12], in assay [13], in [14] and in assay [15] was 0.5 µg/mL (≈ 0.809 µM) in each case.

On to `CCCCCc1ccc(-c2cn(CCCN3CCOC(=O)[C@H](C)[C@@H](O[C@H]4C[C@@](C)(OC)[C@@H](O)[C@H](C)O4)[C@H](C)[C@@H](O[C@H]4O[C@@H](C)C[C@@H](N(C)C)[C@@H]4O)[C@](C)(OC)C[C@@H](C)[C@H](O)[C@H](C)C3)nn2)cc1`, for which the minimal inhibitory concentration (MIC) in [16], in assay [17], in [18], in assay [19] and in [20] was 4 µg/mL (≈ 4.23 µM) throughout.

Take `Cc1ccc2c(c1)C=C(c1nnn(Cc3cn(Cc4ccccc4)nn3)n1)CO2`: the MIC in assay [21] and in assay [22] was 6.5 µg/mL (≈ 16.9 µM) throughout.

For the compound `CC(=O)Nc1ccc(S(=O)(=O)n2cc(CN3CCS(=O)(=O)CC3)nn2)cc1`, the MIC in [6], in assay [23], in assay [7] and in assay [24] was 1.56 µg/mL (≈ 3.77 µM) each time.

For `Cn1c([N+](=O)[O-])cnc1COCc1cn(-c2ccnc3cc(Cl)ccc23)nn1`, the minimal inhibitory concentration (MIC) in assay [25] and in assay [26] was 1 µg/mL (≈ 2.5 µM) each time.
